# Assay results as given in ChEMBL document CHEMBL5726766, “Sulfonamide compounds as voltage-gated sodium channel modulators” (2019).
# Assay: Membrane potential dye assay: HEK-293 cells overexpressing the channel of interest were seeded in a 96-well plate at a density of 30000 cells/well and incubated at 37° C./5% CO2 for 48 hr. The assay was carried out using the Red Membrane Potential Dye (Molecular Devices) following the manufacturer's instructions. Briefly, the cells were incubated with 1× red membrane potential dye for 1.5 hour. The cells were then treated with various concentrations of the test compounds for 15-20 min followed by depolarization with 10-30 μM Veratridine. The fluorescence was read following excitation at 510-545 nm and emission at 565-625 nm in FLIPR. The “max-min” fluorescence values were used to calculate the % inhibition.
# Details: HEK293
row,Compound,IC50 [µM]
1,O=S(=O)(Nc1ccncn1)c1ccc2c(c1)OCC[C@@H]2c1ccc(C(F)(F)F)cc1-c1ccc(F)cc1,> 10
2,O=S(=O)(Nc1cccc(F)n1)c1ccc2c(c1)OCC[C@@H]2c1ccc(C(F)(F)F)cc1-n1ccnn1,> 10
3,O=S(=O)(Nc1ncc(F)cn1)c1ccc2c(c1)OCC[C@@H]2c1ccc(C(F)(F)F)cc1-c1ccc(F)cc1,> 10
4,O=S(=O)(Nc1ncc(F)cn1)c1ccc2c(c1)OCC[C@@H]2c1ccc(C(F)(F)F)cc1-n1ccnn1,> 10
5,O=S(=O)(Nc1ccncn1)c1ccc2c(c1)OCC[C@@H]2c1ccc(C(F)(F)F)cc1-n1ccnn1,> 10
6,O=S(=O)(Nc1ncc(F)cn1)c1ccc2c(c1)OCC[C@@H]2c1ccc(C(F)(F)F)cc1-c1ccc(F)nc1,> 10
7,O=S1(=O)CCN(c2cc(C(F)(F)F)ccc2[C@H]2CCOc3cc(S(=O)(=O)Nc4ncccn4)ccc32)CC1,> 10
8,Cn1nccc1-c1cc(C(F)(F)F)ccc1[C@H]1CCOc2cc(S(=O)(=O)Nc3cnccn3)ccc21,> 10
9,Cn1nccc1-c1cc(C(F)(F)F)ccc1[C@H]1CCOc2cc(S(=O)(=O)Nc3ccncn3)ccc21,> 10
10,O=S(=O)(Nc1ncccn1)c1ccc2c(c1)OCC[C@@H]2c1ccc(C(F)(F)F)cc1-n1ccnn1,> 10
11,O=C(O)c1ccc(-c2cc(C(F)(F)F)ccc2[C@H]2CCOc3cc(S(=O)(=O)Nc4ncc(F)cn4)ccc32)cc1,> 10
12,Cn1nccc1-c1cc(C(F)(F)F)ccc1[C@H]1CCOc2cc(S(=O)(=O)Nc3cccnc3F)ccc21,> 10
13,O=S(=O)(Nc1cccc(F)n1)c1ccc2c(c1)OCC[C@H]2c1ccc(C(F)(F)F)cc1-c1ccc(F)cc1,> 10
14,CCOc1ccc(-c2cc(C(F)(F)F)ccc2[C@H]2CCOc3cc(S(=O)(=O)Nc4ncc(F)cn4)ccc32)cn1,> 10
15,CCCc1cc(C(F)(F)F)ccc1[C@@H]1CCOc2cc(S(=O)(=O)Nc3ncc(F)cn3)ccc21,> 10
16,O=S(=O)(Nc1ncccn1)c1ccc2c(c1)OCC[C@H]2c1ccc(C(F)(F)F)cc1-n1ccnn1,> 10
17,O=C1CCCN1c1cc(C(F)(F)F)ccc1[C@@H]1CCOc2cc(S(=O)(=O)Nc3ncc(F)cn3)ccc21,> 10
18,CC(C)Oc1cccc(NS(=O)(=O)c2ccc3c(c2)OCC[C@@H]3c2ccc(C(F)(F)F)cc2-c2ccnn2C)n1,> 10
19,O=S(=O)(Nc1ncccn1)c1ccc2c(c1)OCC[C@H]2c1ccc(C(F)(F)F)cc1N1CCOCC1,> 10
20,Cn1nccc1-c1cc(C(F)(F)F)ccc1[C@H]1CCOc2cc(S(=O)(=O)Nc3ncccc3F)ccc21,> 10
21,Cn1nccc1-c1cc(Cl)ccc1[C@@H]1CCOc2cc(S(=O)(=O)Nc3cccc(F)n3)ccc21,> 10
22,Cc1ccnc(NS(=O)(=O)c2ccc3c(c2)OCC[C@H]3c2ccc(C(F)(F)F)cc2-c2ccnn2C)n1,> 10
23,O=S(=O)(Nc1cccc(F)n1)c1ccc2c(c1)OCC[C@H]2c1ccc(C(F)(F)F)cc1-n1ccnn1,> 10
24,O=S(=O)(Nc1cccc(F)n1)c1ccc2c(c1)OCC[C@H]2c1ccc(C(F)(F)F)cc1-n1cccn1,> 10
25,O=S(=O)(Nc1ncc(F)cn1)c1ccc2c(c1)OCC[C@H]2c1ccc(C(F)(F)F)cc1-c1ccc(F)cc1,> 10
26,Cc1ccnc(NS(=O)(=O)c2ccc3c(c2)OCC[C@@H]3c2ccc(C(F)(F)F)cc2-c2ccnn2C)n1,> 10
27,Cn1nccc1-c1cc(Cl)ccc1[C@H]1CCOc2cc(S(=O)(=O)Nc3cccc(F)n3)ccc21,> 10

row,Compound,IC50 [µM]
1,O=C1COCCN1c1cc(C(F)(F)F)ccc1[C@H]1CCOc2cc(S(=O)(=O)Nc3ncccn3)ccc21,> 10
2,O=S(=O)(Nc1cccc(F)n1)c1ccc2c(c1)OCC[C@H]2c1ccc(C(F)(F)F)cc1OC1CCOCC1,3.65
3,Cc1nc(-c2cc(C(F)(F)F)ccc2[C@@H]2CCOc3cc(S(=O)(=O)Nc4cccc(F)n4)ccc32)cs1,> 10
4,O=S(=O)(Nc1ccncn1)c1ccc2c(c1)OCC[C@H]2c1ccc(C(F)(F)F)cc1-n1ccnn1,> 10
5,COc1cc(C(F)(F)F)ccc1[C@@H]1CCOc2cc(S(=O)(=O)Nc3cccc(F)n3)ccc21,> 10
6,O=S(=O)(Nc1ncc(F)cn1)c1ccc2c(c1)OCC[C@H]2c1ccc(C(F)(F)F)cc1-n1ccnn1,> 10
7,CCCc1cc(C(F)(F)F)ccc1[C@H]1CCOc2cc(S(=O)(=O)Nc3ncc(F)cn3)ccc21,> 10
8,CS(=O)(=O)CCc1cc(C(F)(F)F)ccc1[C@@H]1CCOc2cc(S(=O)(=O)Nc3ccncn3)ccc21,> 10
9,O=S1(=O)CCN(c2cc(C(F)(F)F)ccc2[C@@H]2CCOc3cc(S(=O)(=O)Nc4ncccn4)ccc32)CC1,> 10
10,Cc1nc(-c2cc(C(F)(F)F)ccc2[C@@H]2CCOc3cc(S(=O)(=O)Nc4cccnn4)ccc32)co1,> 10
11,CC(C)Oc1ccc([C@@H]2CCOc3cc(S(=O)(=O)Nc4cccc(F)n4)ccc32)c(-c2ccnn2C)c1,> 10
12,O=S(=O)(Nc1ncccn1)c1ccc2c(c1)OCC[C@H]2c1ccc(C(F)(F)F)cc1OC1CCOCC1,> 10
13,CS(=O)(=O)CCc1cc(C(F)(F)F)ccc1[C@H]1CCOc2cc(S(=O)(=O)Nc3ncccn3)ccc21,> 10
14,CC(C)Oc1ccc(-c2cc(C(F)(F)F)ccc2[C@H]2CCOc3cc(S(=O)(=O)Nc4ncc(F)cn4)ccc32)cn1,> 10
15,O=S(=O)(Nc1ncccn1)c1ccc2c(c1)OCC[C@H]2c1ccc(C(F)(F)F)cc1-c1ccc(F)cn1,> 10
16,O=S(=O)(Nc1ncccn1)c1ccc2c(c1)OCC[C@H]2c1ccc(C(F)(F)F)cc1C1CCOCC1,> 10
17,Cc1nc(-c2cc(C(F)(F)F)ccc2[C@@H]2CCOc3cc(S(=O)(=O)Nc4ccncn4)ccc32)cs1,> 10
18,Cc1nc(-c2cc(C(F)(F)F)ccc2[C@H]2CCOc3cc(S(=O)(=O)Nc4cccnn4)ccc32)cs1,> 10
19,O=S(=O)(Nc1ncc(F)cn1)c1ccc2c(c1)OCC[C@H]2c1ccc(C(F)(F)F)cc1-c1ccc(F)nc1,> 10
20,CS(=O)(=O)CCc1cc(C(F)(F)F)ccc1[C@H]1CCOc2cc(S(=O)(=O)Nc3cccc(F)n3)ccc21,> 10
21,COCCCc1cc(C(F)(F)F)ccc1[C@@H]1CCOc2cc(S(=O)(=O)Nc3ncccn3)ccc21,> 10
22,Cn1nccc1-c1cc(C(F)(F)F)ccc1[C@@H]1CCOc2cc(S(=O)(=O)Nc3cnccn3)ccc21,> 10
23,O=S(=O)(Nc1cccnn1)c1ccc2c(c1)OCC[C@@H]2c1ccc(C(F)(F)F)cc1-n1ccnn1,> 10
24,O=S(=O)(Nc1cccnn1)c1ccc2c(c1)OCC[C@H]2c1ccc(C(F)(F)F)cc1OC1CCOCC1,> 10
25,COCCCOc1cc(C(F)(F)F)ccc1[C@@H]1CCOc2cc(S(=O)(=O)Nc3ncccn3)ccc21,> 10
26,COCCCCc1cc(C(F)(F)F)ccc1[C@@H]1CCOc2cc(S(=O)(=O)Nc3ncccn3)ccc21,> 10
27,Cc1nc(-c2cc(C(F)(F)F)ccc2[C@@H]2CCOc3cc(S(=O)(=O)Nc4ncccn4)ccc32)cs1,> 10

row,Compound,IC50 [µM]
1,CCCc1cc(C(F)(F)F)ccc1[C@@H]1CCOc2cc(S(=O)(=O)Nc3ncccn3)ccc21,> 10
2,Cc1nc(-c2cc(C(F)(F)F)ccc2[C@H]2CCOc3cc(S(=O)(=O)Nc4ncccn4)ccc32)cs1,> 10
3,O=C1COCCN1c1cc(C(F)(F)F)ccc1[C@@H]1CCOc2cc(S(=O)(=O)Nc3ncccn3)ccc21,> 10
4,O=S(=O)(Nc1ccncn1)c1ccc2c(c1)OCC[C@H]2c1ccc(C(F)(F)F)cc1OC1CCOCC1,> 10
5,Cn1nccc1-c1cc(C(F)(F)F)ccc1[C@@H]1CCOc2cc(S(=O)(=O)Nc3cccnc3F)ccc21,> 10
6,O=C(O)c1ccc(-c2cc(C(F)(F)F)ccc2[C@@H]2CCOc3cc(S(=O)(=O)Nc4ncc(F)cn4)ccc32)cc1,> 10
7,O=S(=O)(Nc1cccnn1)c1ccc2c(c1)OCC[C@@H]2c1ccc(C(F)(F)F)cc1-c1ccc(F)cn1,> 10
8,O=S(=O)(Nc1cccnn1)c1ccc2c(c1)OCC[C@H]2c1ccc(C(F)(F)F)cc1-c1ccc(F)nc1,> 10
9,O=S(=O)(Nc1cccnn1)c1ccc2c(c1)OCC[C@H]2c1ccc(C(F)(F)F)cc1-c1ccc(F)cn1,> 10
10,CS(=O)(=O)CCc1cc(C(F)(F)F)ccc1[C@@H]1CCOc2cc(S(=O)(=O)Nc3ncc(F)cn3)ccc21,> 10
11,CC(C)Oc1cccc(NS(=O)(=O)c2ccc3c(c2)OCC[C@H]3c2ccc(C(F)(F)F)cc2-c2ccnn2C)n1,> 10
12,Cn1nccc1-c1cc(C(F)(F)F)ccc1[C@@H]1CCOc2cc(S(=O)(=O)Nc3ncccc3F)ccc21,> 10
13,O=S(=O)(Nc1ccncn1)c1ccc2c(c1)OCC[C@H]2c1ccc(C(F)(F)F)cc1-c1ccc(F)cc1,> 10
14,COc1cc(C(F)(F)F)ccc1[C@H]1CCOc2cc(S(=O)(=O)Nc3ncccn3)ccc21,> 10
15,O=C1CCCN1c1cc(C(F)(F)F)ccc1[C@H]1CCOc2cc(S(=O)(=O)Nc3ncc(F)cn3)ccc21,> 10
16,Cc1cccc(NS(=O)(=O)c2ccc3c(c2)OCC[C@H]3c2ccc(C(F)(F)F)cc2-c2ccnn2C)n1,> 10
17,O=S(=O)(Nc1ncccn1)c1ccc2c(c1)OCC[C@H]2c1ccc(C(F)(F)F)cc1OC1COC1,> 10
18,CS(=O)(=O)CCc1cc(C(F)(F)F)ccc1[C@@H]1CCOc2cc(S(=O)(=O)Nc3ncccn3)ccc21,> 10
19,O=C(O)c1ccc(-c2cc(C(F)(F)F)ccc2[C@H]2CCOc3cc(S(=O)(=O)Nc4ncccn4)ccc32)cc1,> 10
20,CS(=O)(=O)CCc1cc(C(F)(F)F)ccc1[C@H]1CCOc2cc(S(=O)(=O)Nc3ncc(F)cn3)ccc21,> 10
21,O=S(=O)(Nc1ncc(F)cn1)c1ccc2c(c1)OCC[C@H]2c1ccc(C(F)(F)F)cc1OC1CCOCC1,> 10
22,Cn1nccc1-c1cc(C(F)(F)F)ccc1[C@@H]1CCOc2cc(S(=O)(=O)Nc3cc(F)ccn3)ccc21,> 10
23,O=S(=O)(Nc1cccc(F)n1)c1ccc2c(c1)OCC[C@@H]2c1ccc(C(F)(F)F)cc1-n1cccn1,> 10
24,Cn1nccc1-c1cc(C(F)(F)F)ccc1[C@@H]1CCOc2cc(S(=O)(=O)Nc3ccncn3)ccc21,> 10
25,CS(=O)(=O)CCc1cc(C(F)(F)F)ccc1[C@H]1CCOc2cc(S(=O)(=O)Nc3ccncn3)ccc21,> 10
26,CC(C)Oc1ccc([C@H]2CCOc3cc(S(=O)(=O)Nc4cccc(F)n4)ccc32)c(-c2ccnn2C)c1,> 10
